# Measured values published in patent US20070166547A1, “Use of a layer consisting of hydrophobic linear, or two-dimensional polycyclic aromatics as a barrier layer or an encapsulation and electric components constructed with a layer of this type and comprising organic polymers” (priority 2003, published 2007).
# Key:
# [1] = tested on: adenosine-sensitive receptors of thrombocytes; test: ADP-induced aggregation of thrombocytes in vitro (Born method); type: cell-based, rabbit; conditions: 3 min incubation, ADP 10^−5 M
# Method: The compounds according to the invention were studied for the effect of aggregation of thrombocytes induced by a preliminary introduction of a solution of an aggregation inductor with a competing introduction of the compounds according to the invention.
# The aggregation of thrombocytes was studied by the Born method based on determination of the changes in the optical density of plasma enriched with thrombocytes after its incubation with an aggregation inductor.
# Adenozinediphosphoric acid (ADP) was selected as an aggregation inductor, which in fact is an aggregation generator. Use was made of a sample (registration number 885) of the Sigma Diagnostics Company (USA) in final concentration of 10^−5 M.
# The experiments were carried out on male rabbits of the “Chinchilla” breed having a mass of 2.7±0.3 kg. 18-24 hours prior to the experiment they were deprived of feed while preserving free access to water.
# To obtain plasma enriched with thrombocytes, blood was taken from a cut of a marginal vein of the rabbit ear, the sample was stabilized with 3.8% of sodium citrate solution in a ratio of 9:1 and centrifuged at 200 g (1000 rev/min) for 10 minutes. The top supernatant layer enriched with thrombocytes was transferred by an automatic dropper into a silicone test tube and kept at 37° C. The plasma enriched with thrombocytes contained, on the average, […]. If this content exceeded the specified 3×10^8 blood platelets in 1 liter, this sample was diluted to the necessary concentration with plasma deprived of thrombocytes, which was obtained by centrifuging blood at 650 g during 10 minutes.
# The measurements of the optical density of the samples were made on two-channel aggregometer of the “Chronolog” Company (USA). A flask containing 490 mkl of plasma rich with thrombocytes was placed in a device, into which a magnetic agitator covered with Teflon was lowered. The index of maximum amplitude of aggregation (MA) in percent of a fall of the plasma optical density under effect of the aggregation inductor was recorded. The control index MA of plasma was compared with the MA of plasma incubated for 3 minutes with different concentrations of the compounds: from 10^−3 to 10^−7 in vitro experiments or with plasma obtained 15, 30, 60 and 120 minutes after intravenous administration of different doses of the compounds in vivo experiments.
# The process of aggregation of thrombocytes was recorded with the help of a computer; on the monitor screen the there were depicted curves reflecting changes of the optical density of the plasma enriched which was taken as a standard 100% compared to the optical density of the non-thrombocyte plasma taken for 0% content of thrombocytes.
# Under in vitro conditions a flask was filled with blood plasma enriched with thrombocytes, to which an aggregation inductor ADP was added at a concentration of 10^−5 M, incubated for 3 minutes, and then the compounds according to the invention were introduced directly into the flask. Their action by aggregation of thrombocytes was studied after 3-minute incubation in a wide range of concentrations from 10^−3 to 10^−7 M to minimum concentration of 10^−7 M not inducing no effect of suppressing the aggregation.
# [2] = tested on: embyronic fibroblasts of mouse NIH-3T3; test: Endocellular pHi of fibroblasts by microspectrofluorimetry (FDA, BCECF-AM); type: cell-based; conditions: for rise of pHi: fibroblasts in an attached spread state; for increase of pHi: 20 minutes
# Method: The effect of the compounds according to the invention on the endocellular pH, embyronic fibroblasts of mouse NIH-3T3 supplied by the All-Russian Collection of Cellular Cultures of the Institute of Cytology of the Russian Academy of Sciences St. Petersburg was investigated. The cells were grown in the DMEM (Sigma) medium containing 2.2 g/l of sodium bicarbonate with addition of 80.0 mkg/ml of gentamicin and 10.0% embryonal veal serum at a temperature of 37° C. in an atmosphere containing 5.0% of carbon dioxide. For these experiments use was also made of a medium buffer with 5.0 mM of HEPES and 15.0 mM of sodium bicarbonate without serum or with addition of 5.0% serum. The cells were calculated with the help of a hemocytometer. A share of the dead cells was determined by colouring trypan blue.
# The measurements of the endocellular pHi were carried out with the help of colorants FDA (Sigma) and BCECF-AM (Calbiochem) on a microspectrofluorimeter by a standard technique (Koshevoy Yu. V., Akatov V. S., Grobova M. E. Microspectrofluorimeter for measuring endocellular pH (micro pH)”. Devices and equipment for studies in the field of physical-and-chemical biology and biotechnology. Pushchino, 1990. P. 8-14).
# The cells at a temperature of 37° C. were colored within 5 minutes with 5.0 mkM PDA that before the colouring was prepared from a 10.0 mM solution in acetone by dilution for 30 minutes in a phosphatic buffer to 0.1 mM or 2.0 mkM 1.0 mM solution BCECF-AM in DMSO.
# The two-wave method of determining pHi was used based on the ratio intensities of fluorescence of the cells on two wavelengths (Akatov V. S. et all), “Endocellular pH and substrate dependence of proliferation of fibroblasts of Chinese hamster, Cytology, 1991, 33 (7), p. 86-94). The fluorescence was excited by light at λ=490 nm, the emission was recorded simultaneously with two photomultipliers on wavelengths λ=535 nm and λ=570 nm. The K-ratio of the fluorescence on two wavelengths was determined with a deduction of the background fluorescence of the medium near the investigated cells for 40-60 individual cells, which are then averaged taking into account the measurement error. A thermostatically controlled table was used that allowed measurements to be conducted at a temperature of 37° C. An account was taken for the photodynamic damage of the pigmented cells during-long-time continuous illumination by excited light. The readings were taken from a section of the preparation exposed to light for not more than 5 minutes.
# The calibration curves for determining the absolute pHi values by magnitude K were constructed using the Thomas technique (Thomas J. A., Bushbaum R. N., Zimniak A. w Racker E. “Intracellular pH measurements in Ehrlich ascites tumor cells utilizing spectroscopic probe generated in situ”, Biochemistry, 1979, v. 18, p. 2210-2218), for which case the pigmented cells treated for 5-10 minutes with carboxyacidic nigericyn (Calbiochem) at a concentration of 5-10 mkg/ml was placed in a solution with a high content of potassium—130 mM KCl, 1.0 mM MgCl2, 20.0 mM of HEPES) and with pH values from 6.2 to 7.6. The K values were measured in the media with different pH assuming that pHi of the cells equals to the pH of the medium due to the action of nigericyn, which exchanges potassium ions for protons and at a high content of potassium in the medium counterbalances the pH of the medium and cells. Calibration curves were used based on the fluorescence of same medium with addition of 5.0 mkM of fluorescence or BCECF were used to the control the stability of the of the instrument readings.
# The correctness of the technique was confirmed in the experiments on measurements of pH values of cells treated with protonofor monencine raising pH of the cells due to replacement of sodium ions by protons, and by determining the dependence of the change of pHi on the change of the pH of the medium. […]
# [3] = medium with 10.0% blood serum, 0.02 mkg/ml, suspension
# [4] = medium with 10.0% blood serum, 0.2 mkg/ml, suspension
# [5] = medium with 10.0% blood serum, 2.0 mkg/ml, suspension
# [6] = medium with 10.0% blood serum, 20.0 mkg/ml, suspension
# [7] = medium without blood serum, 0.02 mkg/ml
# [8] = medium without blood serum, 0.2 mkg/ml
# [9] = medium without blood serum, 2.0 mkg/ml
# [10] = medium without blood serum, 20.0 mkg/ml
# [11] = medium without blood serum, 200 mkg/ml
# [12] = medium without blood serum, 1000 mkg/ml
Compound,"MA - fall of optical density of plasma, % to the standard ([1]; 10^−3 M)","MA - fall of optical density of plasma, % to the standard ([1]; 10^−4 M)","MA - fall of optical density of plasma, % to the standard ([1]; 10^−5 M)","MA - drop of optical density, % compared to control ([1]; 10^−6 M)","MA - drop of optical density, % compared to control ([1]; 10^−7 M)",rise of pHi ([2]; 2.0 mkg/ml),rise of pHi ([2]; 20.0 mkg/ml),"increase of pHi [2, 3]","increase of pHi [2, 4]","increase of pHi [2, 5]","increase of pHi [2, 6]","increase of pHi [2, 7]","increase of pHi [2, 8]","increase of pHi [2, 9]","increase of pHi [2, 10]","increase of pHi [2, 11]","increase of pHi [2, 12]"
"Nc1ccnc2c(=O)n([C@@H]3O[C@H](CO)[C@@H](O)[C@H]3O)[nH]c(=O)c12 [Compound 2, 4-amino-7-(β-D-ribofuranosile)pyrido[2,3-d]-6H-pyridazine-5,8-dione]",51.4 ± 2.7 %,50.4 ± 1.7 %,48.2 ± 1.0 %,50.1 ± 2.0%,50.8 ± 2.2%,–,–,–,–,–,–,–,–,–,–,–,–
"Nc1cccc2c(=O)[nH][nH]c(=O)c12.[Na] [Compound 15, sodium salt of 5-amino-benzo[d]-3H-pyridazine-1,4-dione]",44.8 ± 2.8 %,46.3 ± 1.7 %,39.8 ± 3.1 %,47.3 ± 1.8 %,49.3 ± 1.4%,0.10 unit pHi,0.07 unit pHi,do not initiate a change of pH,0.1 unit pH,0.12 unit pH,do not initiate a change of pH,no effect was found,no effect was found,0.08 unit pHi,0.08 unit pHi,no effect was found,no effect was found
"Nc1cnc2c(=O)n([C@@H]3O[C@H](CO)[C@@H](O)[C@H]3O)[nH]c(=O)c2n1.[Na] [Compound 21, sodium salt of 3-amino-7-(β-D-ribofuranosile)pyrazine[2,3-d]-6H-pyridazine-5,8-dione]",47.1 ± 3.0 %,49.2 ± 2.1 %,41.8 ± 2.4 %,49.6 ± 1.7%,49.7 ± 2.1%,–,–,–,–,–,–,–,–,–,–,–,–
"O=c1[nH]n([C@@H]2O[C@H](CO)[C@@H](O)[C@H]2O)c(=O)c2nc(O)cnc12.[Na].[Na] [Compound 23, disodium salt of 2-hydroxy-7-(β-D-ribofuranosile)pyrazine[2,3-Cl]-6H-pyridazine-5,8-dione]",–,–,–,–,–,0.10 unit pHi,0.07 unit pHi,do not initiate a change of pH,0.1 unit pH,0.12 unit pH,do not initiate a change of pH,no effect was found,no effect was found,0.08 unit pHi,0.08 unit pHi,no effect was found,no effect was found
"O=c1[nH][nH]c(=O)c2nccnc12.[Li] [Compound 25, lithium salt of pyrazine[2,3-d]-6H-pyridazine-5,8-dione]",48.2 ± 2.9 %,48.6 ± 2.0 %,43.4 ± 3.2 %,50.3 ± 2.1%,50.1 ± 3.0%,–,–,–,–,–,–,–,–,–,–,–,–
"Nc1ncc2c(=O)[nH][nH]c(=O)c2n1 [Compound 36, 2-amino-pyrimido[4,5-d]-6H-pyridazine-5,8-dione]",45.8 ± 2.3 %,46.9 ± 2.4 %,40.1 ± 2.0 %,49.3 ± 2.6%,49.7 ± 1.8%,0.10 unit pHi,0.07 unit pHi,do not initiate a change of pH,0.1 unit pH,0.12 unit pH,do not initiate a change of pH,no effect was found,no effect was found,0.08 unit pHi,0.08 unit pHi,no effect was found,no effect was found
"O=c1[nH][nH]c(=O)c2c(Br)ncnc12.[K] [Compound 37, potassium salt of 4-bromine-pyrimido[4,5-D]-6H-pyridazine-5,8-dione]",46.9 ± 2.7 %,47.1 ± 2.0 %,40.6 ± 1.7 %,48.1 ± 2.9%,50.1 ± 1.0%,–,–,–,–,–,–,–,–,–,–,–,–
